Measurements reported in publication PMC13089524, “Development of SYK NanoBRET cellular target engagement assays for gain–of–function variants” (Frontiers in chemical biology, 2024).

Columns and labels:
[1] = molecular target: T1, SYK(S550F)-NL (Homo sapiens, UniProt P43405, S550F); assay: NanoBRET cellular target engagement assay in intact live HEK293 cells, SYK(S550F)-NL; format: cell-based
T1 construct: host or cells: HEK293
Description: (§1) NL orientations used in the respective assays are indicated. […] Plates were incubated for 25 min at room temperature if digitonin was added or for 2 h at 37°C in 5% CO2 for the intact cell NanoBRET assay. […] For intact live cells in a 96-well plate, the 3X stock solution was prepared with 30 μL of NanoBRET NanoGlo substrate, 10 μL of extracellular NanoLuc inhibitor, and 4,960 μL of Opti-MEM without phenol red. For digitonin permeabilized live cells in a 96-well plate, the 3X stock solution was prepared with 30 μL of NanoBRET NanoGlo substrate and 4,970 μL of Opti-MEM without phenol red. Raw milliBRET units (mBU) were read on a GloMax Discover system (Promega) with a donor emission wavelength of 450 nm and an acceptor emission wavelength of 600 nm. mBU were calculated by dividing the acceptor emission values (600 nm) by the donor emission values (450 nm). For NanoBRET studies with SYK, background corrected mBU were calculated by subtracting the no tracer wells from the tracer-containing wells and multiplying by 1,000.
(§2) MRL-SYKi was used to compete away the NanoBRET signal produced with tracer 8. […] Tracer 8 was prepared in DMSO and DMEM without phenol red in 11-point dose-response format with 3 μM as the top concentration, with a final assay plate concentration of 1% DMSO. 10X stock solutions of MRL-SYKi were prepared from 10 mM DMSO stock solution with room temperature Opti-MEM without phenol red, for final assay plate concentrations of 10 μM. 10 μL of 8 (10X) was added to each well, with the exception of the no tracer control wells, and 10 μL of 10X solutions of MRL-SYKi was added to wells for tracer competition. One biological replicate was plotted in GraphPad Prism with [inhibitor] vs response (three parameters).
(§3) MRL-SYKi was tested in 11-point dose–response format with a top concentration of 10 μM. […] The final assay plate concentrations included 1% DMSO. 5 μL of 8 (20X) was added to each well, except the no tracer control wells, and 10 μL of 10X threefold diluted solutions of MRL-SYKi was added to wells. Two biological replicates were plotted in GraphPad Prism with log[inhibitor] vs response (three parameters) with the error bars indicating standard deviation.
(§4) Compounds were tested in 11-point dose–response format with a top concentration of 10 μM. Data are reported as IC50 ± standard error mean (SEM). One biological replicate was plotted in GraphPad Prism with log[inhibitor] vs response (three parameters), the three IC50’s were averaged and the SEM was calculated.

[2] = molecular target: T2, SYK(P342T)-NL (Homo sapiens, UniProt P43405, P342T); assay: NanoBRET cellular target engagement assay in intact live HEK293 cells, SYK(P342T)-NL; format: cell-based
T2 construct: host or cells: HEK293
Description: as §1, §2, §3, §4

[3] = system: JAK1; conditions: ref Ma et al., 2015; Guo et al., 2017; cited from earlier work
[4] = molecular target: TNK1; conditions: only off-target kinase bound; ref Sharman et al., 2015; Cooper et al., 2023; cited from earlier work
[5] = molecular target: T3, SYK (Homo sapiens, UniProt P43405); assay: Eurofins DiscoverX SYK enzymatic radiometric assay; format: biochemical
T3 construct: purchased Eurofins DiscoverX (contract assay service)
Description: Eurofins kinase enzymatic radiometric assays were executed at the Km value for ATP in dose–response (9-pt curve) format for SYK, included in Table 1 as enzymatic IC50 values.

[6] = molecular target: T4, SYK(WT)-NL (Homo sapiens, UniProt P43405); assay: NanoBRET assay in digitonin permeabilized HEK293 cells, SYK(WT)-NL; format: cell-based
T4 construct: SYK tracers enable BRET with full-length SYK(WT) after digitonin permeabilization; host or cells: HEK293
Description: We performed NanoBRET tracer optimization to determine if the SYK tracers could effectively generate a BRET signal. […] To enable the NanoBRET assay using tracer 8 with cells permeabilized by digitonin, a tracer dose–response study was performed for each SYK(GoF) variant and SYK(WT) (Figure 3A), followed by tracer titration experiments (Figure 3B; Supplementary Figure S3). […] Initially, we determined the EC50 of tracer 8 for each SYK(GoF) variant and SYK(WT). […] Plates were incubated for 25 min at room temperature if digitonin was added or for 2 h at 37°C in 5% CO2 for the intact cell NanoBRET assay. […] For intact live cells in a 96-well plate, the 3X stock solution was prepared with 30 μL of NanoBRET NanoGlo substrate, 10 μL of extracellular NanoLuc inhibitor, and 4,960 μL of Opti-MEM without phenol red. For digitonin permeabilized live cells in a 96-well plate, the 3X stock solution was prepared with 30 μL of NanoBRET NanoGlo substrate and 4,970 μL of Opti-MEM without phenol red. Raw milliBRET units (mBU) were read on a GloMax Discover system (Promega) with a donor emission wavelength of 450 nm and an acceptor emission wavelength of 600 nm. mBU were calculated by dividing the acceptor emission values (600 nm) by the donor emission values (450 nm). For NanoBRET studies with SYK, background corrected mBU were calculated by subtracting the no tracer wells from the tracer-containing wells and multiplying by 1,000.
HEK293 cells were transfected with constructs of SYK(WT) or SYK(KD) tagged with NL on the C- or N-terminus and SYK GoF variants tagged with NL on the C-terminus. Tracer 8 (20X) was prepared from a 400 μM stock solution in DMSO with tracer dilution buffer (Promega, #N291B) and 20% DMSO, with a final assay plate concentration of 1% DMSO. 5 μL of 8 (20X) was added to each well, with exception of the no tracer control wells, with final plate concentrations of 0.5, 1, and 2 μM. 10 μL of digitonin (Fisher, 10X, 500 μg/mL) was added to specific wells to permeabilize the cells. The 10X digitonin stock was prepared by diluting a 40X DMSO solution of digitonin with room temperature Opti-MEM without phenol red, for a final assay plate concentration of 1% DMSO. SYK inhibitor stock solutions of MRL-SYKi (10X) were prepared from 10 mM DMSO stock solutions with room temperature Opti-MEM without phenol red, for final assay plate concentrations of 10 μM. Plates were incubated for 25 min at room temperature if digitonin was added or for 2 h at 37°C in 5% CO2 for the intact cell NanoBRET assay. Two technical replicates were plotted in a bar chart with the standard deviation represented as error bars on Graphpad Prism.

[7] = molecular target: T5, SYK(S550Y)-NL (Homo sapiens, UniProt P43405, S550Y); assay: NanoBRET assay in digitonin permeabilized HEK293 cells, SYK(S550Y)-NL; format: cell-based; conditions: relative to MRL-SYKi (20 μM) treated cells, single experiment, read-out: EC50 of tracer, SYK(variant)-NL S550Y
T5 construct: host or cells: HEK293
Description: (§5) We performed NanoBRET tracer optimization to determine if the SYK tracers could effectively generate a BRET signal. […] To enable the NanoBRET assay using tracer 8 with cells permeabilized by digitonin, a tracer dose–response study was performed for each SYK(GoF) variant and SYK(WT) (Figure 3A), followed by tracer titration experiments (Figure 3B; Supplementary Figure S3). […] Initially, we determined the EC50 of tracer 8 for each SYK(GoF) variant and SYK(WT). […] Plates were incubated for 25 min at room temperature if digitonin was added or for 2 h at 37°C in 5% CO2 for the intact cell NanoBRET assay. […] For intact live cells in a 96-well plate, the 3X stock solution was prepared with 30 μL of NanoBRET NanoGlo substrate, 10 μL of extracellular NanoLuc inhibitor, and 4,960 μL of Opti-MEM without phenol red. […] Raw milliBRET units (mBU) were read on a GloMax Discover system (Promega) with a donor emission wavelength of 450 nm and an acceptor emission wavelength of 600 nm. mBU were calculated by dividing the acceptor emission values (600 nm) by the donor emission values (450 nm). For NanoBRET studies with SYK, background corrected mBU were calculated by subtracting the no tracer wells from the tracer-containing wells and multiplying by 1,000. […]

[8] = molecular target: T1, SYK(S550F)-NL; assay: NanoBRET assay in digitonin permeabilized HEK293 cells, SYK(S550F)-NL; format: cell-based; conditions: relative to MRL-SYKi (20 μM) treated cells, single experiment, read-out: EC50 of tracer, SYK(variant)-NL S550F
Description: as §5

[9] = molecular target: T2, SYK(P342T)-NL; assay: NanoBRET assay in digitonin permeabilized HEK293 cells, SYK(P342T)-NL; format: cell-based; conditions: relative to MRL-SYKi (20 μM) treated cells, single experiment, read-out: EC50 of tracer, SYK(variant)-NL P342T
Description: as §5

[10] = molecular target: T6, SYK(A353T)-NL (Homo sapiens, UniProt P43405, A353T); assay: NanoBRET assay in digitonin permeabilized HEK293 cells, SYK(A353T)-NL; format: cell-based; conditions: relative to MRL-SYKi (20 μM) treated cells, single experiment, read-out: EC50 of tracer, SYK(variant)-NL A353T
T6 construct: host or cells: HEK293
Description: as §5

[11] = molecular target: T7, SYK(M450I)-NL (Homo sapiens, UniProt P43405, M450I); assay: NanoBRET assay in digitonin permeabilized HEK293 cells, SYK(M450I)-NL; format: cell-based; conditions: relative to MRL-SYKi (20 μM) treated cells, single experiment, read-out: EC50 of tracer, SYK(variant)-NL M450I
T7 construct: host or cells: HEK293
Description: as §5

[12] = molecular target: T5, SYK(S550Y)-NL; assay: NanoBRET cellular target engagement assay in intact live HEK293 cells, SYK(S550Y)-NL; format: cell-based; conditions: intact cells, ± 10 μM MRL-SYKi, single experiment; read-out: cellular EC50 of the tracer, SYK(S550Y)-NL
Description: as §1, §2, §3, §4

[13] = molecular target: T8, SYK(WT) (Homo sapiens, UniProt P43405); assay: PhosphoSens SOX peptide kinase activity assay, SYK(WT); format: biochemical; conditions: dose-response, purified protein
T8 construct: Full-length human SYK(WT) DNA was custom synthesized (GenScript); 6His (N, cleaved yes); GST (N, cleaved yes); made in house; host or cells: Sf9 insect cells (baculovirus, pFastbac1)
Description: Full-length human SYK(WT) DNA was custom synthesized (GenScript) as a codon optimized form for expression in Sf9 cells. N-terminal 6His and GST tags were introduced, followed by a TEV protease cleavage site, and cloned into pFastbac1. SYK(S550F) and SYK(P342T) were generated by site-directed mutagenesis of SYK(WT) using the NEB Q5 site directed mutagenesis kit. Plasmids were transformed into E. coli DH10Bac for bacmid generation. Recombinant bacmid DNA was used to transfect Sf9 cells to generate viral stocks. For large-scale protein production, 2 L of Sf9 cells at 2 × 10^6 cells/ml were infected with a P2 virus stock and allowed to incubate with shaking for 3 days at 27°C. Harvested cells were lysed in 200 mL lysis buffer containing 50 mM HEPES (pH 7.5), 500 mM NaCl, 10 mM imidazole, 10% glycerol, 1 mM TCEP. […]
SYK kinase activity was evaluated using a continuous kinase assay using a PhosphoSens (AssayQuant) SOX peptide, according to the protocol provided, with modifications. […] Fluorescence readings were taken at 30-s intervals for a duration ranging from 30 min to an hour, using a PheraStar FX device set to kinetic mode, employing an appropriate optics module (FI 350 460). The data was represented as a plot of relative fluorescence over time, deducting the fluorescence of control reactions (which lacked kinase) from the fluorescence recorded after introducing the kinase. […]

[14] = Solubility of tracer in NanoBRET assay medium; format: physicochemical; conditions: dose-response top concentration 3 μM
[15] = system: pSYK(Y525/526) in SW480 cells stably expressing SYK(S550Y); conditions: ref Wang et al. (2021); cited from earlier work

CCS(=O)(=O)N1CCN(c2ccc(Nc3ncc(C(N)=O)c(NC4CC4)n3)cc2)CC1 [Cerdulatinib]
IC50 ([1]; intact HEK293 cells, 125 nM tracer 8, average of triplicate ± SEM, read-out: SYK(S550F) IC50): 170 ± 21 nM
IC50 ([2]; intact HEK293 cells, 125 nM tracer 8, average of triplicate ± SEM, read-out: SYK(P342T) IC50): 360 ± 36 nM
IC50 [3]: 12 nM

c1cn2cc(-c3ccc4cn[nH]c4c3)nc(Nc3ccc(N4CCOCC4)cc3)c2n1 [Entospletinib]
Kd [4]: < 100 nM

Cc1cc(Nc2nccc(C)n2)cc(-c2cnc([C@@]3(O)CC[C@H](C(=O)NCCCNC(=O)CCc4ccc5n4[B-](F)(F)[N+]4=C(c6ccc[nH]6)C=CC4=C5)C(C)(C)C3)s2)c1 [Tracer 8]
IC50 ([5]; Km value for ATP, 9-pt dose-response): 110 nM
decrease in potency compared to the parent inhibitor MRL-SYKi ([5]; ratio of enzymatic IC50): 3.6 fold
BRET signal (background subtracted) ([6]; C-terminal NL fusion, tracer 0.5, 1, 2 μM): approximately 15 mBU
EC50 ([6]; relative to MRL-SYKi (20 μM) treated cells, single experiment, read-out: EC50 of tracer, SYK(variant)-NL WT): 39 nM
EC50 [7]: 8 nM
EC50 [8]: 7 nM
EC50 [9]: 9 nM
EC50 [10]: 24 nM
EC50 [11]: 65 nM
EC50 [12]: 159 nM
EC50 ([1]; intact cells, ± 10 μM MRL-SYKi, single experiment, read-out: cellular EC50 of the tracer, SYK(S550F)-NL): 273 nM
EC50 ([2]; intact cells, ± 10 μM MRL-SYKi, single experiment, read-out: cellular EC50 of the tracer, SYK(P342T)-NL): 280 nM
effect on SYK(WT) catalytic activity [13]: inhibits SYK(WT) catalytic activity
solubility [14]: solubility issues at >3 μM

COc1cc(Nc2ncc(F)c(Nc3ccc4c(n3)NC(=O)C(C)(C)O4)n2)cc(OC)c1OC [Tracer R406]
S550Y phosphorylation levels [15]: decrease S550Y phosphorylation levels
